Activity calls are given as the source filed them. How the calls were made is not given here.
Columns and labels:
[1] = target: T1, Nucleoside diphosphate phosphatase ENTPD5 (Homo sapiens) (UniProt O75356); assay: Inhibition of human recombinant ENTPD5 expressed in insect cells assessed as reduction in UDP hydrolysis at 1 uM incubated for 1 hr in presence of UMP, GTP and ATP by Escherichia coli UMP kinase pyrH catalyzed UMP phosphorylation coupled luciferase assay
T1 sequence (whole entry): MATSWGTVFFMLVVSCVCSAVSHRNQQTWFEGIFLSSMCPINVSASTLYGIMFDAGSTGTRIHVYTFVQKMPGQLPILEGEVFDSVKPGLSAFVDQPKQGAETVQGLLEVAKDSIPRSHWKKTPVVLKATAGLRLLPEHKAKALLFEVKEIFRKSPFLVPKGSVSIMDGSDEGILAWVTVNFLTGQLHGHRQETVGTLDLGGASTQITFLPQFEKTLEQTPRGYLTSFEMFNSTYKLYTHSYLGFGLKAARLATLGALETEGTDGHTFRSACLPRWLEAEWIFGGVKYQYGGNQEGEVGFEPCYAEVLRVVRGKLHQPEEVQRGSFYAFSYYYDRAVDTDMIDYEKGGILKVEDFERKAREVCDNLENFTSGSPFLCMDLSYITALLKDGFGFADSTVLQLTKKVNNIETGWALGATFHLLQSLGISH

[2] = target: T1, Nucleoside diphosphate phosphatase ENTPD5 (Homo sapiens); assay: Inhibition of human recombinant ENTPD5 expressed in insect cells assessed as reduction in UDP hydrolysis up to 10 uM incubated for 1 hr in presence of UMP, GTP and ATP by Escherichia coli UMP kinase pyrH catalyzed UMP phosphorylation coupled luciferase assay
[3] = target: T2, Uridylate kinase (Escherichia coli (strain K12)) (UniProt P0A7E9); assay: Inhibition of recombinant Escherichia coli UMP kinase pyrH catalyzed UMP phosphorylation in presence of GTP and ATP incubated for 1 hr by luminescence based assay
T2 sequence (whole entry): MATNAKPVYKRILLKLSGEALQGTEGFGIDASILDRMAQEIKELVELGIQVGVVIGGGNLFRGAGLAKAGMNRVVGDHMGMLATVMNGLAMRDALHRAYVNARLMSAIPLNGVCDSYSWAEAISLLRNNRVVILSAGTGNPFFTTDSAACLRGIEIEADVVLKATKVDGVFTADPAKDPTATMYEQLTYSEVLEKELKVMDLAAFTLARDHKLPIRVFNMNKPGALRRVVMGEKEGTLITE

[4] = target: T1, Nucleoside diphosphate phosphatase ENTPD5 (Homo sapiens); assay: Inhibition of human recombinant ENTPD5 expressed in insect cells assessed as reduction in reduction in UDP hydrolysis by measuring inorganic phosphate release incubated for 1 hr by malachite green based assay

Row | Compound | inhibition [1] | inhibition [2] | inhibition [3] | inhibition [4]
1 | CN(C)c1ccc(/C=C(\NC(=O)c2cccc(F)c2)C(=O)N/N=C/c2cc(Cl)cc([N+](=O)[O-])c2O)cc1 | Active | Dose-dependent effect | inactive | Active
2 | Cc1ccc(/C=C/C(=O)Nc2nc3ccc(Cl)cc3s2)o1 | Active | Dose-dependent effect | inactive | Active
3 | C=CCN(CC(=O)N(Cc1ccc2c(c1)OCO2)Cc1coc2ccc(Cl)cc2c1=O)C(=O)c1cccc2ccccc12 | Active | Dose-dependent effect | inactive | Active
4 | COc1ccc(/C=C2\SC(=S)N(CCCC(=O)NNC(=O)c3ccccc3O)C2=O)cc1 | Active | Dose-dependent effect | inactive | Active
5 | Cc1nn2cc(-c3ccccc3)cc2c2c(C)n(C)c(C)c12 | Active | Dose-dependent effect | inactive | Active
6 | CCN1C(=O)/C(=C/c2cccn2C)C(=O)NC1=S | Active | Dose-dependent effect | inactive | Active
7 | O=C1NC(=S)N(c2ccc(Cl)cc2)C(=O)/C1=C/c1ccc(I)o1 | Active | Dose-dependent effect | inactive | Active
8 | CCOc1cc(/C=C2\SC(=S)NC2=O)cc(Br)c1OCc1cccc2ccccc12 | Active | Dose-dependent effect | inactive | Active
9 | O=S(=O)(Nc1cc(-c2c(O)ccc3ccccc23)c(O)c2ccccc12)c1ccc(F)cc1 | Active | Dose-dependent effect | inactive | Active
10 | COc1cccc(NC(=S)Nc2ccc3nc(-c4ccco4)c(-c4ccco4)nc3c2)c1 | Active | Dose-dependent effect | inactive | Active
11 | O=C(NC12CC3CC(CC(C3)C1)C2)N1CCN(C(=O)c2ccco2)CC1 | Active | Dose-dependent effect | inactive | Active
12 | CCN1C(=O)c2ccc(-c3ccc(C=C4C(=O)NC(=S)NC4=O)o3)cc2C1=O | Active | Dose-dependent effect | inactive | Active
13 | O=C1/C(=C/c2ccc(-c3cccc(C(F)(F)F)c3)o2)SC(=S)N1Cc1ccco1 | Active | Dose-dependent effect | inactive | Active
14 | O=[N+]([O-])c1cccc(C2C3CC=CC3c3cc([N+](=O)[O-])cc4c3N2CC2CC=CC42)c1 (configuration not stated) | Active | Dose-dependent effect | inactive | Active
15 | O=S(=O)(c1cccc2cccnc12)N(CCc1csc2nc(-c3ccc4ccccc4c3)cn12)Cc1ccco1 | Active | Dose-dependent effect | inactive | Active
16 | COC(=O)c1cccc2c1NC(c1ccc([N+](=O)[O-])cc1)C1CC=CC21 (configuration not stated) | Active | Dose-dependent effect | inactive | Active
17 | O=C1NC(=O)C(=Cc2cn(-c3ccccc3)nc2-c2ccc(F)cc2)C(=O)N1 | Active | Dose-dependent effect | inactive | Active
18 | O=C(NCCNc1ccc([N+](=O)[O-])cc1)c1ccc(CSc2nnnn2-c2ccccc2)cc1 | Active | Dose-dependent effect | inactive | Active
19 | O=C1NC(=S)NC(=O)C1=Cc1cn(-c2ccccc2)nc1-c1ccccc1 | Active | Dose-dependent effect | inactive | Active

Row | Compound | inhibition [1] | inhibition [2] | inhibition [3] | inhibition [4]
20 | O=C1OC(c2ccccc2)OC(=O)C1=Cc1ccc(-c2cccc(Br)c2)o1 (configuration not stated) | Active | Dose-dependent effect | inactive | Active
21 | COc1cc(/C=C2/SC(=S)N(C3CCCCC3)C2=O)cc(Cl)c1O | Active | Dose-dependent effect | inactive | Active
22 | CC1=C(C(=O)OC(C)C)C(c2cn(-c3ccccc3)nc2-c2ccc(Cl)cc2)C(C(=O)OC(C)C)=C(C)N1 | Active | Dose-dependent effect | inactive | Active
23 | O=C(c1ccc(C(F)(F)F)cc1)N(CCc1csc2nc(-c3ccc4ccccc4c3)cn12)Cc1ccco1 | Active | Dose-dependent effect | inactive | Active
24 | CC(C)(C)C(=O)Nc1ccc(C(=O)Nc2ccc(-c3nc4ncccc4o3)cc2)cc1 | Active | Dose-dependent effect | inactive | Active
25 | O=C1NC(=O)N(c2ccc(Br)cc2)C(=O)/C1=C/c1c[nH]c2ccccc12 | Active | Dose-dependent effect | inactive | Active
26 | CN1C(=O)c2ccc(NC(=S)NC(=O)CC34CC5CC(CC(C5)C3)C4)cc2C1=O | Active | Dose-dependent effect | inactive | Active
27 | O=C(CSc1nc2c([nH]c3ccccc32)c(=O)n1-c1ccccc1)N1CCN(c2ccccc2)CC1 | Active | Dose-dependent effect | inactive | Active
28 | N#CC1=C(N)NC(SCC(=O)c2cc3ccccc3oc2=O)=C(C#N)C1=C1C=CC(=O)C=C1 | Active | Dose-dependent effect | inactive | Active
29 | O=C1/C(=C/c2ccc(-c3ccc(Cl)cc3)o2)SC(=S)N1Cc1ccco1 | Active | Dose-dependent effect | inactive | Active
30 | CC(=O)c1ccc(-c2ccc(C=C3C(=O)N(C)C(=S)N(C)C3=O)o2)cc1 | Active | Dose-dependent effect | inactive | Active
31 | Clc1ccc(C2N=c3c(-c4ccco4)nnc(-c4nc5ccccc5s4)c3=N2)cc1 (configuration not stated) | Active | Dose-dependent effect | inactive | Active
32 | O=C1NC(=S)N(c2ccccc2F)C(=O)/C1=C/c1cccn1-c1ccc(Cl)cc1 | Active | Dose-dependent effect | inactive | Active
33 | COC(=O)Cn1cc(/C=C2\C(=O)NC(=S)N(c3ccc(Cl)cc3)C2=O)c2ccccc21 | Active | Dose-dependent effect | inactive | Active
34 | COc1ccc2c(c1)C1C=CCC1C(c1ccc([N+](=O)[O-])cc1)N2 (configuration not stated) | Active | Dose-dependent effect | inactive | Active
35 | O=C(Cn1cc(/C=C2/C(=O)NC(=O)N(c3ccc4c(c3)OCO4)C2=O)c2ccccc21)Nc1ccccc1 | Active | Dose-dependent effect | inactive | Active
36 | O=C(NC(=S)Nc1ccc(-c2nc3ncccc3o2)cc1)c1ccc(Cl)cc1Cl | Active | Dose-dependent effect | inactive | Active
37 | COc1cc(-c2ccc(/C=C3\SC(=N)N(c4nccs4)C3=O)o2)c(OC)cc1Cl | Active | Dose-dependent effect | inactive | Active
38 | O=C1OC(c2ccccc2)OC(=O)C1=Cc1ccc(-c2cc([N+](=O)[O-])ccc2Cl)o1 (configuration not stated) | Active | Dose-dependent effect | inactive | Active

Reference: ChEMBL document CHEMBL4418495, “Entpd5 inhibitors” (2012)
